Reference: the supplement of paper PMC10307832

What was measured:
Experiment in all cases: relative viability (nuclei count vs DMSO), 5 days (fraction); higher = more cells survive
VX-11e + Vorinostat = compound: CC1=CN=C(N=C1C2=CNC(=C2)C(=O)N[C@H](CO)C3=CC(=CC=C3)Cl)NC4=C(C=C(C=C4)F)Cl [VX-11e] + O=C(CCCCCCC(=O)Nc1ccccc1)NO [Vorinostat] (partner 1 µM)
How it was run: (§1)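 Relative viability is defined as nuclei in treated wells over nuclei in vehicle wells. Duplicate plates were run and medians reported. Lung cancer cell lines in 1536-well plates were dosed by pin tool one day after seeding, with one drug or with a fixed anchor-drug dose plus five library-drug doses (not always all listed) in √10 steps, and nuclei were counted after 5 days.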

VX-11e + Pemetrexed = compound: CC1=CN=C(N=C1C2=CNC(=C2)C(=O)N[C@H](CO)C3=CC(=CC=C3)Cl)NC4=C(C=C(C=C4)F)Cl [VX-11e] + Nc1nc2[nH]cc(CCc3ccc(C(=O)N[C@@H](CCC(=O)O)C(=O)O)cc3)c2c(=O)[nH]1 [Pemetrexed] (partner 0.2 µM)
How it was run: as §1

VX-11e + Dasatinib = compound: CC1=CN=C(N=C1C2=CNC(=C2)C(=O)N[C@H](CO)C3=CC(=CC=C3)Cl)NC4=C(C=C(C=C4)F)Cl [VX-11e] + Cc1nc(Nc2ncc(C(=O)Nc3c(C)cccc3Cl)s2)cc(N2CCN(CCO)CC2)n1 [Dasatinib] (partner 0.075 µM)
How it was run: as §1

VX-11e + Palbociclib = compound: CC1=CN=C(N=C1C2=CNC(=C2)C(=O)N[C@H](CO)C3=CC(=CC=C3)Cl)NC4=C(C=C(C=C4)F)Cl [VX-11e] + CC(=O)c1c(C)c2cnc(Nc3ccc(N4CCNCC4)cn3)nc2n(C2CCCC2)c1=O [Palbociclib] (partner 0.5 µM)
How it was run: as §1

| Cell Line | relative viability (VX-11e + Vorinostat; first compound 0.04 µM) | relative viability (VX-11e + Vorinostat; first compound 0.1265 µM) | relative viability (VX-11e + Vorinostat; first compound 0.4 µM) | relative viability (VX-11e + Vorinostat; first compound 1.265 µM) | relative viability (VX-11e + Vorinostat; first compound 4 µM) | relative viability (VX-11e + Pemetrexed; first compound 0.04 µM) | relative viability (VX-11e + Pemetrexed; first compound 0.1265 µM) | relative viability (VX-11e + Pemetrexed; first compound 0.4 µM) | relative viability (VX-11e + Pemetrexed; first compound 1.265 µM) | relative viability (VX-11e + Pemetrexed; first compound 4 µM) | relative viability (VX-11e + Dasatinib; first compound 0.04 µM) | relative viability (VX-11e + Dasatinib; first compound 0.1265 µM) | relative viability (VX-11e + Dasatinib; first compound 0.4 µM) | relative viability (VX-11e + Dasatinib; first compound 1.265 µM) | relative viability (VX-11e + Dasatinib; first compound 4 µM) | relative viability (VX-11e + Palbociclib; first compound 0.04 µM) | relative viability (VX-11e + Palbociclib; first compound 0.1265 µM) | relative viability (VX-11e + Palbociclib; first compound 0.4 µM) | relative viability (VX-11e + Palbociclib; first compound 1.265 µM) | relative viability (VX-11e + Palbociclib; first compound 4 µM) |
| --- | --- | --- | --- | --- | --- | --- | --- | --- | --- | --- | --- | --- | --- | --- | --- | --- | --- | --- | --- | --- |
| NCI-H1915 | 0.469 | 0.493 | 0.526 | 0.607 | 0.43 | 0.484 | 0.509 | 0.477 | 0.381 | 0.388 | 0.288 | 0.291 | 0.25 | 0.267 | 0.217 | 0.546 | 0.465 | 0.481 | 0.433 | 0.217 |
| NCI-H1944 | 0.492 | 0.506 | 0.441 | 0.478 | 0.408 | 0.602 | 0.77 | 0.382 | 0.505 | 0.374 | 0.203 | 0.207 |  | 0.2 | 0.154 | 0.323 | 0.343 | 0.338 | 0.264 | 0.205 |
| NCI-H1975 | 0.736 | 0.724 | 0.664 | 0.677 | 0.465 | 0.307 | 0.276 | 0.295 | 0.27 | 0.258 | 0.373 | 0.29 | 0.195 | 0.254 | 0.171 | 0.543 | 0.411 | 0.169 | 0.391 | 0.17 |
| NCI-H1993 |  | 0.819 | 0.505 | 0.47 | 0.623 |  | 0.537 | 0.457 | 0.58 | 0.521 | 0.442 | 0.54 | 0.523 | 1.46 | 0.504 |  | 0.708 | 0.607 | 0.559 | 0.503 |
| NCI-H2009 | 0.794 | 0.604 | 0.638 | 0.791 | 0.233 | 1.08 | 1.03 | 1.12 | 1.1 | 0.673 | 0.307 | 0.286 | 0.242 | 0.169 | 0.122 | 0.177 | 0.171 | 0.187 | 0.158 | 0.0988 |
| NCI-H2023 | 0.709 | 0.604 | 0.289 | 0.318 | 0.209 | 0.224 | 0.241 | 0.225 | 0.145 | 0.157 | 0.647 | 0.508 | 0.502 | 0.439 | 0.234 | 0.336 | 0.338 | 0.251 | 0.203 | 0.111 |
| NCI-H2085 | 0.826 | 0.707 | 0.689 | 0.449 | 0.584 | 0.862 | 0.873 | 0.81 | 0.635 | 0.583 | 0.296 | 0.241 | 0.217 | 0.188 | 0.193 | 0.498 | 0.437 | 0.457 | 0.404 | 0.366 |
| NCI-H2087 | 0.944 | 0.644 |  | 0.495 | 0.239 | 0.691 | 0.613 |  | 0.64 | 0.544 | 0.943 | 0.73 |  | 0.301 | 0.202 | 0.203 | 0.244 |  | 0.176 | 0.176 |
| NCI-H2126 | 0.512 | 0.686 | 0.352 | 0.474 | 0.52 | 0.554 | 0.621 | 0.399 | 0.567 | 0.517 | 0.52 | 0.635 |  | 0.597 | 0.401 | 0.331 | 0.379 | 0.359 | 0.353 | 0.318 |
